Results as given in patent publication US10954228B2 (NATIONAL INSTITUTES OF HEALTH, UNITED STATES DEPARTMENT OF …, priority 2016, dated 2021).

How the values were obtained:
Human LDHA = Human LDHA (Homo sapiens (Human), UniProt P00338); test: human LDHA primary biochemical assay; settings: biochemical LDHA inhibitory activity, assay of Example 1; activity level classes defined in nM
In short: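 Human LDHA at 2 nM with 0.06 mM NADH and 0.2 mM sodium pyruvate in 200 mM Tris HCl pH 7.4, 100 μM EDTA, 0.01% TWEEN-20 (final). NADH consumption coupled to resazurin/diaphorase (0.037 mM; 0.133 mg/mL); inhibition read by fluorescence.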

MiaPaCa2 cells = test: cell-based HT lactate assay by colorimetric/fluorometric detection (cellular inhibition of lactate production); settings: Homo sapiens, MIA PaCa-2, assay of Example 6
Method: This example describes a cell-based metabolite assay by colorimetric/fluorometric detection employed in the characterization of a compound of formula (I) in an embodiment of the invention.
Cell-based HT Lactate assay is a miniaturized Biovision Lactate Colorimetric/Fluorometric Assay Kit (Cat #K607-100). The assay is roughly a 3.5 hour assay run in a 1536 plate format. Cell number optimization should be run for each cell line to achieve an optimal number in which lactate production equals roughly 90% of the standard curve range. Cell number per well optimization has been performed with the following cell lines: MiaPaCa2—500 cells/well, SNU398—500 cells/well, and P493—500 cells/well.

IC50 (Human LDHA) [nM]	IC50 (MiaPaCa2 cells) [µM]	Compound
100 to 1000	> 57	NS(=O)(=O)c1ccc(Cc2c(-c3cccc(-c4ccc5c(c4)CCCC5)c3)nn(-c3nc(C(=O)O)cs3)c2CC2CC2)cc1F [Compound 174, 2-(5-(cyclopropylmethyl)-4-(3-fluoro-4-sulfamoylbenzyl)-3-(3-(5,6,7,8-tetrahydronaphthalen-2-yl)phenyl)-1H-pyrazol-1-yl)thiazole-4-carboxylic acid]
100 to 1000	< 1	CC(C)(C)c1ccc(-c2cccc(-c3nn(-c4nc(C(=O)O)cs4)c(CC4CC4)c3Cc3ccc(S(N)(=O)=O)c(F)c3)c2)cc1 [Compound 168, 2-(3-(4′-(tert-butyl)-[1,1′-biphenyl]-3-yl)-5-(cyclopropylmethyl)-4-(3-fluoro-4-sulfamoylbenzyl)-1H-pyrazol-1-yl)thiazole-4-carboxylic acid]
< 100	< 1	NS(=O)(=O)c1ccc(Cc2c(-c3ccc(F)c(-c4cc(F)cc(F)c4)c3)nn(-c3nc(C(=O)O)cs3)c2CC2CC2)cc1F [Compound 156, 2-(5-(cyclopropylmethyl)-4-(3-fluoro-4-sulfamoylbenzyl)-3-(3′,5′,6-trifluoro-[1,1′-biphenyl]-3-yl)-1H-pyrazol-1-yl)thiazole-4-carboxylic acid]
< 100	< 1	NS(=O)(=O)c1ccc(Cc2c(-c3cccc(-c4ccc(Cl)c(F)c4)c3)nn(-c3nc(C(=O)O)cs3)c2CC2CC2)cc1F [Compound 164, 2-(3-(4′-chloro-3′-fluoro-[1,1′-biphenyl]-3-yl)-5-(cyclopropylmethyl)-4-(3-fluoro-4-sulfamoylbenzyl)-1H-pyrazol-1-yl)thiazole-4-carboxylic acid]
100 to 1000	< 1	Cc1cc(C)cc(-c2cc(-c3nn(-c4nc(C(=O)O)cs4)c(CC4CC4)c3Cc3ccc(S(N)(=O)=O)c(F)c3)ccc2F)c1 [Compound 151, 2-(5-(cyclopropylmethyl)-3-(6-fluoro-3′,5′-dimethyl-[1,1′-biphenyl]-3-yl)-4-(3-fluoro-4-sulfamoylbenzyl)-1H-pyrazol-1-yl)thiazole-4-carboxylic acid]
< 100	> 57	CC(C)c1cccc(-c2cccc(-c3nn(-c4nc(C(=O)O)cs4)c(CC4CC4)c3Cc3ccc(S(N)(=O)=O)c(F)c3)c2)c1 [Compound 173, 2-(5-(cyclopropylmethyl)-4-(3-fluoro-4-sulfamoylbenzyl)-3-(3′-isopropyl-[1,1′-biphenyl]-3-yl)-1H-pyrazol-1-yl)thiazole-4-carboxylic acid]
< 100	> 57	NS(=O)(=O)c1ccc(Cc2c(-c3cccc(-c4cccc(Cl)c4)c3)nn(-c3nc(C(=O)O)cs3)c2CC2CC2)cc1F [Compound 175, 2-(3-(3′-chloro-[1,1′-biphenyl]-3-yl)-5-(cyclopropylmethyl)-4-(3-fluoro-4-sulfamoylbenzyl)-1H-pyrazol-1-yl)thiazole-4-carboxylic acid]
< 100	< 1	Cc1ccc(C#Cc2cccc(-c3nn(-c4nc(C(=O)O)cs4)c(CC4CC4)c3Cc3ccc(S(N)(=O)=O)c(F)c3)c2)o1 [Compound 129, 2-(5-(cyclopropylmethyl)-4-(3-fluoro-4-sulfamoylbenzyl)-3-(3-((5-methylfuran-2-yl)ethynyl)phenyl)-1H-pyrazol-1-yl)thiazole-4-carboxylic acid]
< 100	< 1	NS(=O)(=O)c1ccc(Cc2c(-c3cccc(-c4ccc(Cl)cc4)c3)nn(-c3nc(C(=O)O)cs3)c2CC2CC2)cc1F [Compound 166, 2-(3-(4′-chloro-[1,1′-biphenyl]-3-yl)-5-(cyclopropylmethyl)-4-(3-fluoro-4-sulfamoylbenzyl)-1H-pyrazol-1-yl)thiazole-4-carboxylic acid]

Compound	IC50 (Human LDHA) [nM]	IC50 (MiaPaCa2 cells) [µM]
Cc1ccc(C#Cc2cccc(-c3nn(-c4nc(C(=O)O)cs4)c(C4CC45CC5)c3Cc3ccc(S(N)(=O)=O)c(F)c3)c2)s1 (centres unmarked) [Compound 131, 2-(4-(3-fluoro-4-sulfamoylbenzyl)-3-(3-((5-methylthiophen-2-yl)ethynyl)phenyl)-5-(spiro[2.2]pentan-1-yl)-1H-pyrazol-1-yl)thiazole-4-carboxylic acid]	< 100	< 1
